Data set [1] is described as follows: UV-vis absorption and emission spectroscopy, relative fluorescence quantum yields. The note with it: for λabs / λem: room temperature; for Фf (relative fluorescence quantum yield): standard rhodamine-6G (Ф = 0.86) in methanol, λexc = 473 nm; for Φf (relative fluorescence quantum yield): standard Ru(bpy)Cl2.6H2O (Φf = 0.028) in H2O, λexc = 436 nm. The data set is classed as physicochemical. As for the experimental part:
UV−vis absorption spectra were collected on a Varian Cary 50 Bio spectrophotometer. Emission spectra were obtained on a PerkinElmer LS55 spectrophotometer, at room temperature. Spectrophotometric grade solvents and quartz cuvettes (1 cm path length) were used. Relative fluorescence quantum yields (Φf) were calculated using rhodamine 6G (Φf = 0.86 in methanol) as reference for the neutral BODIPYs and Ru(bpy)Cl2.6H2O (Φf = 0.028 in water) as the standard for the cationic BODIPYs using the following equation: Φx = Φst × Gradx/Gradst × (ηx/ηst)^2, where the ΦX and ΦST are the quantum yields of the sample and standard, GradX and GradST are the gradients from the plot of integrated fluorescence intensity vs. absorbance, and η represents the refractive index of the solvent (x is for the sample and st for the standard).

Data set [2] has as its system HEp2 cells. Kind of data set: Dark cytotoxicity, Cell Titer Blue. The data set is classed as cell-based. The settings on record: Homo sapiens, HEp-2, 24 h incubation, read-out: Dark Toxicity (IC50). As for the experimental part:
(§1) Human carcinoma HEp2 cells were obtained from ATCC and maintained in a 75 cm^2 flask (Chemglass) with 1× MEM (Eagle’s minimal essential medium) containing 10% FBS (fetal bovine serum) and 1% antibiotic (penicillin–streptomycin) in a humidified, 5% CO2 incubator at 37 °C. Stock solutions with a concentration of 32 mM in DMSO were prepared for each BODIPY. The stock solution was diluted to the final working concentrations with culture medium. The HEp2 cells were plated at 7500–10,000 cells per well in a Costar 96-well plate and allowed to grow for 24 h. The BODIPY stock solution was diluted to a 200 μM working solution and two-fold serial dilutions were prepared with final concentrations of 200, 100, 50, 25, 12.5, 6.25, and 0 μM. Each BODIPY was incubated for 24 h at 37 °C under 5% CO2. For the dark cytotoxicity experiments, after incubation, excess BODIPY was removed by washing the cells three times with 1× PBS (phosphate-buffered saline) and replacing with media containing 20% Cell Titer Blue (Promega, Madison, WI, USA). The cells were then incubated for additional 24 h at 37 °C under 5% CO2 and the cell toxicity was determined by fluorescence intensity at ex 570/em 615 nm using a FluoStar Optima microplate reader (BMG Labtech, Cary, NC, USA).

Data set [3] deals with HEp2 cells. Kind of data set: Phototoxicity (1.5 J/cm^2), Cell Titer Blue. The data set is classed as cell-based. The settings on record: Homo sapiens, HEp-2, light or radiation study, light dose 1.5 J/cm^2. How it is done:
as §1
For the phototoxicity experiments, after incubation the cells were exposed to a light dose of ~1.5 J/cm^2 generated using a 600 W Quartz Tungsten Halogen lamp (Newport Corporation, Irvine, CA, USA). The cells were exposed for 20 min while the 96-well plate rested on an EchoTherm chilling plate (Torrey Pines Scientific, Carlsbad, CA, USA) set to 5 °C. Following light exposure, the loading media was removed and media containing 20% Cell Titer Blue was added. After incubation for 24 h at 37 °C under 5% CO2, the cell viability was determined as described above.
On the technique in general: Alamar Blue is a resazurin reagent that responds to reducing activity.

The nature of data set [4]: Cyclic voltammetry. The data set is classed as physicochemical. The source says: Cyclic voltammograms were collected on a Biologic SP-300 potentiostat using a three-electrode setup with a platinum working electrode (2 mm diameter, CH Instruments), platinum counter electrode (2 mm diameter, CH Instruments), and a silver wire pseudo reference-electrode stored in 0.25 M NBu4PF6 in anhydrous acetonitrile and separated from the electrochemical cell by a glass frit. The electrochemical cell was composed of a borosilicate glass scintillation vial with a custom-machined cap. Working electrodes were polished and then pre-treated by cycling between upper and lower boundaries of the electrochemical window for the experiment in a solution containing only the electrolyte. Measurements were taken in a solution of 0.25 M recrystallized NBu4PF6 in dried and degassed anhydrous acetonitrile. BODIPYs were added to 5 mL of electrolyte solution to give a concentration of 1 mM. Each solution also contained 1 mM ferrocene as an internal reference. Solutions were sparged with N2 before each measurement.

For data set [5] the following is noted: cited from earlier work.
[6] abbreviates: vs. Fc^+/Fc, 100 mV/s, acetonitrile, 0.25 M NBu4PF6.

Like-named read-outs stand apart in the source and are kept apart here. Marks after values point to notes of the source that are not given here. Where only a bound is given, the exact number is not on record here.

Usually IC50 stands for the concentration needed to halve the response being measured.

On to `CC1=C(Cl)C(C)=[N+]2C1=C(c1ccccn1)c1c(C)c(Cl)c(C)n1[B-]2(F)F` [2PyCl2, 2,6-Dichloro-8-(2-pyridyl)-1,3,5,7-tetramethyl-BODIPY], for which, in data set [1] (CH3CN), the “Stokes Shift” value came to 15 nm, the “ε (molar extinction coefficient)” value is given as 64,280 M^−1 cm ^−1, the λabs was found to be 530 nm and the λem is 545 nm. Besides, in data set [1] (CH3OH), the “Stokes Shift” value came to 17 nm, the labs was found to be 531 nm, the lem worked out at 548 nm and the “ε (molar extinction coefficient)” value was 69940 M-1 cm -1. In addition, in data set [1] (CH3OH), the “Фf (relative fluorescence quantum yield)” value is listed as 0.23. For the same molecule, in data set [2], the IC50 was more than 200 µM. This molecule displayed an IC50 in data set [3] of more than 100 µM.
As to `CC1=CC(C)=[N+]2C1=C(c1cccnc1)c1c(C)cc(C)n1[B-]2(F)F` [3Py], in data set [1] (CH3CN), the “Stokes Shift” value was determined as 12 nm, the “ε (molar extinction coefficient)” value is 92,900 M^−1 cm ^−1, the λabs was found to be 502 nm and the λem amounted to 514 nm. In data set [1] (CH3OH), the “Stokes Shift” value was 12 nm, the labs is 503 nm, the lem came out at 515 nm and the “ε (molar extinction coefficient)” value was 98140 M-1 cm -1. The “Фf (relative fluorescence quantum yield)” value in data set [1] (CH3OH) worked out at 0.34. Besides, the half-inhibitory concentration (IC50) in data set [2] is more than 200 µM. In data set [3], this molecule came in with an IC50 of more than 100 µM.
On to `CC1=CC(C)=[N+]2C1=C(c1ccc[n+](C)c1)c1c(C)cc(C)n1[B-]2(F)F` [3catPy, 1,3,5,7-Tetramethyl-8-(N-methyl-3-pyridyl)-BODIPY Iodide], for which, in data set [1] (CH3CN), the “Stokes Shift” value turned out to be 22 nm, the “ε (molar extinction coefficient)” value is recorded as 65,460 M^−1 cm ^−1, the λabs is reported as 510 nm and the λem worked out at 532 nm. In data set [1] (CH3CN), the “Φf (relative fluorescence quantum yield)” value was 0.006. Also, the “Φf (relative fluorescence quantum yield)” value in data set [1] (CH3CN, listed as 3catPy (I^−)) was 0.006 ^b. Further, in data set [1] (H2O), the “Stokes Shift” value was 20 nm, the “ε (molar extinction coefficient)” value is reported as 37,320 M^−1 cm ^−1, the λabs is 510 nm and the λem was determined as 530 nm. In data set [1] (H2O), the “Φf (relative fluorescence quantum yield)” value was 0.005 ^b. For the same molecule, the “bathochromic shift of maximum absorption wavelength upon methylation” value in data set [1] (acetonitrile, experimental) stood at 8 nm. In data set [4], the “first reduction, more negative than the two-electron reduction in 4catPy” value is reported as 200 mV and the “second reduction, more negative than the two-electron reduction in 4catPy” value stood at 480 mV. Moreover, in data set [4] (setting [6]), the “E1/2red, first one-electron reduction” value is −1.26 V and the “E1/2red, second one-electron reduction” value is −1.54 V. Further, the E1/2ox entry in data set [4] (vs. Fc^+/Fc, 100 mV/s, acetonitrile, 0.25 M NBu4PF6, PF6^− counterion) is given as “+0.89 V”. Also, the half-maximal inhibitory concentration (IC50) in data set [2] was more than 200 µM. Besides, the half-inhibitory concentration (IC50) in data set [3] is more than 100 µM.
As to `O.O.O.O.O.O.[Cl-].[Cl-].[Ru+2].c1ccc(-c2ccccn2)nc1.c1ccc(-c2ccccn2)nc1.c1ccc(-c2ccccn2)nc1` [Ru(bpy)Cl2.6H2O, reference compound], the “Φf of the reference standard” value in data set [5] (in water) is on record as 0.028.
In the case of `CC1=C(Cl)C(C)=[N+]2C1=C(c1ccncc1)c1c(C)c(Cl)c(C)n1[B-]2(F)F` [4PyCl2], in data set [5] (CH3CN), the “Stokes Shift” value is listed as 18 nm, the “Φf (fluorescence quantum yield)” value is listed as 0.58, the “ε (molar extinction coefficient)” value is listed as 50,800 M^−1 cm ^−1 and the λabs is 528 nm. The λem in data set [5] (CH3CN) is listed as 546 nm.
On to `CC1=CC(C)=[N+]2C1=C(c1ccccn1)c1c(C)cc(C)n1[B-]2(F)F` [2Py], for which, in data set [1] (CH3CN), the “Stokes Shift” value is reported as 12 nm, the “ε (molar extinction coefficient)” value was 87,500 M^−1 cm ^−1, the λabs is reported as 502 nm and the λem stood at 514 nm. Further, in data set [1] (CH3OH), the “Stokes Shift” value is reported as 10 nm, the labs came to 504 nm, the lem is 514 nm and the “ε (molar extinction coefficient)” value was 119800 M-1 cm -1. Further, the “Фf (relative fluorescence quantum yield)” value in data set [1] (CH3OH) is 0.13. Also, the IC50 in data set [2] is more than 200 µM. In addition, the half-inhibitory concentration (IC50) in data set [3] is more than 100 µM.
Regarding `CC1=C(Cl)C(C)=[N+]2C1=C(c1cc[n+](C)cc1)c1c(C)c(Cl)c(C)n1[B-]2(F)F` [4catPyCl2], the “fluorescence enhancement relative to the non-chlorinated pyridinium BODIPY” value in data set [1] (water) was 10 fold. Besides, in data set [4], the “two-electron reduction shift positive compared with 4catPy” value was 180 mV. Further, the “anodic peak shift positive compared with the corresponding unchlorinated BODIPY” value in data set [4] (100 mV/s) is reported as 180 mV. Also, the “E1/2red, two-electron reduction to doubly reduced state” value in data set [4] (setting [6]) was −0.89 ^e V. Moreover, in data set [4] (vs. Fc^+/Fc, value at 1 V/s, acetonitrile, 0.25 M NBu4PF6), the E1/2ox entry was “+1.03 ^d V”. Besides, in data set [5] (CH3CN), the “Stokes Shift” value was 62 nm, the “Φf (fluorescence quantum yield)” value is 0.048, the “ε (molar extinction coefficient)” value was 23,400 M^−1 cm ^−1 and the λabs is on record as 538 nm. The λem in data set [5] (CH3CN) is 600 nm. Further, in data set [5] (H2O), the “Stokes Shift” value is 65 nm, the “Φf (fluorescence quantum yield)” value was 0.038, the “ε (molar extinction coefficient)” value was 11,640 M^−1 cm ^−1 and the λabs is 540 nm. The λem in data set [5] (H2O) was 605 nm.
For `CC/N=c1\cc2oc3cc(NCC)c(C)cc3c(-c3ccccc3C(=O)OCC)c-2cc1C` [rhodamine 6G, reference compound], in data set [5] (in methanol), the “Φf of the reference standard” value is 0.86.
In the case of `CC1=C(Cl)C(C)=[N+]2C1=C(c1cccnc1)c1c(C)c(Cl)c(C)n1[B-]2(F)F` [3PyCl2, 2,6-Dichloro-8-(3-pyridyl)-1,3,5,7-tetramethyl-BODIPY], in data set [1] (CH3CN), the “Stokes Shift” value was determined as 15 nm, the “ε (molar extinction coefficient)” value is 57,540 M^−1 cm ^−1, the λabs came to 527 nm and the λem came out at 542 nm. In addition, in data set [1] (CH3OH), the “Stokes Shift” value was 16 nm, the labs is on record as 530 nm, the lem is 546 nm and the “ε (molar extinction coefficient)” value is given as 66880 M-1 cm -1. For the same molecule, the “Фf (relative fluorescence quantum yield)” value in data set [1] (CH3OH) was 0.57. Further, the 50% inhibitory concentration (IC50) in data set [2] came to 200 µM. Besides, the half-maximal inhibitory concentration (IC50) in data set [3] was more than 100 µM.
`CC1=CC(C)=[N+]2C1=C(c1ccncc1)c1c(C)cc(C)n1[B-]2(F)F` [4Py]: the IC50 in data set [2] is more than 200 µM. The same molecule came in with an IC50 in data set [3] of more than 100 µM. In addition, in data set [5] (CH3CN), the “Stokes Shift” value is on record as 14 nm, the “Φf (fluorescence quantum yield)” value was 0.31, the “ε (molar extinction coefficient)” value was 72,100 M^−1 cm ^−1 and the λabs is given as 501 nm. In data set [5] (CH3CN), the λem is 515 nm.

The record behind these values is publication PMC9315496, “A Comparison of the Photophysical, Electrochemical and Cytotoxic Properties of meso-(2-, 3- and 4-Pyridyl)-BODIPYs and Their Derivatives” (Sensors (Basel, Switzerland), 2022).
